Test results reported in patent US3995033A, “Secondary phosphoric acid esters, composition and method of use” (priority 1971, dated 1976).
Structures can show the parent of a compound that is named as a salt.

What was measured:
[1] = tested on: gerbil colon, contractions produced by prostaglandins E1, E2, F1α and F2α; assay: PG-inhibitory effect on the isolated gerbil colon; parameters: species or system Gerbils (Meriones unguiculatus)
Procedure: The PG-inhibitory effect of esters of the present invention on the gerbil colon are determined using the general technique described by Eakins, Miller & Karim (J. Pharm. Exp. Ther. 176:441, 1971). Gerbils (Meriones unguiculatus) of own breed, both sexes, weighing 50-80 g are used. The animal is stunned, colon ascendens immediately removed, and a 2-3 cm piece mounted in a 6 ml bath containing a modified de Jalon solution at 28° C and continuously oxygenated. Contractions of the organ are registered either isotonicaly or isometrically. When testing the inhibitory effect of a compound this is added to the bath 2 min. before the addition of prostaglandin. The antagonist (esters of this invention) is usually dissolved in saline, but occasionally an organic solvent such as ethanol has to be included. Several concentrations of each antagonist are used. In this system prostaglandins E1, E2, F1α and F2α produce suitable contractions of the organ in the concentration range 1-50 ng/ml.
Results from these experiments give an approximation of the PG-inhibitory potency of the compounds. When more precise information about this is desired we use a more elaborate method involving the establishment of several […] dose-response curves in the presence of various concentrations of inhibitor. The method used is essentially the same as that described by Arunlakshana & Schild (Br. J. Pharm. 14:48, 1959). […]

[2] = tested on: PGE2-stimulated corticosterone production by adrenals; assay: Prostaglandin-stimulated corticosterone production by rat adrenals in vitro; type: cell-based, Sprague-Dawley male rats; conditions: for Corticosterone production: mean ± standard error
Procedure: The inhibitory effect of esters of the present invention has been investigated on the prostaglandin-stimulated corticosterone production by adrenals from male rats in vitro. The experiments were performed using adult Sprague-Dawley male rats weighing 200-250 g, which were housed 1 per cage under conditions of controlled lighting and temperature. Animal quarters were not entered during the 18 hours preceding the experiment. The animals were sacrified by decapitation at 10 AM under conditions chosen to minimize disturbance of the animals. The adrenals were decapsulated and quartered and 8 adrenal quarters from different animals were distributed to 10 ml Erlenmeyer flasks containing 0.5 ml 0.9 % saline and 2.0 ml Krebs-Ringer bicarbonate buffer, pH 7.4. The weight of the adrenal tissue in each flask was determined. The flasks were gassed with 95 % O 2 -- 5 CO2 and preincubated at 37° C for 1 hour with continuous shaking. Following preincubation the media were decanted and discarded. One ml of Krebs-Ringer buffer, with or without the additions of prostaglandin E2 (PGE2) sodium 3,5-dimethylphenyl 4-(3-(2,4,6-trihydroxyphenyl)-3-oxopropyl)phenyl phosphate.
(for details see below) was added to the flasks, which were then gassed with 95 % 02 -- 5 % CO2 and kept at 37° C for 1 hour with continuous shaking. Following incubation, corticosterone levels were determined on 0.5 ml aliquots of the medium by the sulphuric acid fluorescence method.
In the first experiment (I) PGE2 in a concentration of 1 μg/ml was added to the incubation medium containing the quartered adrenals.
In the next experiment (II) different amounts of Leo 1258 to the incubation medium.

[3] = tested on: ovarian lactic acid production produced by PGE1; assay: Prostaglandin-stimulated glycolysis of the prepubertal ovary in vitro; type: cell-based, prepubertal rats
Procedure: The action of esters of the present invention on the prostaglandin-stimulated glycolysis of the prepubertal ovary is investigated. The method used has been described in detail by Perklev & Ahren (Life Sciences Part I, 10:1387, 1971). In these experiments ovaries from prepubertal rats are removed and placed in Erlenmeyer flasks containing compounds of this invention dissolved in Krebs bicarbonate buffer. After that the ovaries have been preincubated during 60 min. at 37° C in this medium, they are blotted on filter paper and then washed for 2 min. in plain buffer. The ovaries are then transferred to a new incubation medium containing prostaglandins (PG) dissolved in Krebs bicarbonate buffer and incubated at 37° C for 2 hours with continuous shaking. The ovarian glycolysis is then determined by measuring the concentration of lactic acid in the incubation medium. When polyphloretin phosphate (PPP) is present in the preincubation medium in a concentration of 500 μg/ml, the subsequent ovarian lactic acid production produced by PGE1 is reduced to about 50 % of that obtained with ovaries preincubated in plain buffer.

[4] = tested on: PGE1-stimulated ovarian glycolysis; assay: In vivo action on prostaglandin-stimulated glycolysis of the prepubertal ovary (i.p. injection, ovaries then incubated with PGE1); parameters: species or system Prepubertal rats of the Sprague-Dawley strain; conditions: injected i.p. (500 μg in 1 ml saline) one hour before removal of ovaries; PGE1 0.4 μg/ml, 2 hours
Procedure: Prepubertal rats, 24-26 days old, of the Sprague-Dawley strain, are injected intraperitoneally (i.p.) with 1 ml saline containing 500 μg sodium 3,5-dimethylphenyl 4-(3-(2,4,6-trihydroxyphenyl)-3-oxo-propyl)phenyl phosphate.
One hour later the animals are sacrified by cervical fracture and the ovaries are removed and trimmed free of extraneous tissue. The ovaries are then transferred to an incubation bath containing prostaglandin E1 (PGE1; 0.4 μg/ml) dissolved in Krebs bicarbonate buffer and incubated at 37° C for 2 hours with continuous shaking. The ovarian glyclysis is then determined by measuring the concentration of lactic acid in the incubation medium. The details of the method have been described previously (Perkley, T. & Ahren, K., Life Sciences Part I, 10:1387, 1971).

[5] = tested on: anaphylactic bronchoconstriction elicited by antigen (egg albumin), isolated perfused guinea-pig lung; assay: Anaphylactic bronchoconstriction in the isolated perfused lung of sensitized guinea-pigs
Excerpt: The effects of esters of the present invention on the anaphylactic reaction in guinea-pigs have been investigated using the isolated perfused guinea-pig lung preparation as described by Bhattacharya & Delaunois (Arch. Int. Pharmacodyn. 101:495, 1955). Guinea-pigs weighing about 300 g are sensitized with egg albumin according to Fredholm & Strandberg (1969). After the appropriate sensitization period the lungs are removed and mounted in a moist, thermostated chamber. The trachea and A. pulmonalis are cannulated. The arterial cannula is connected to a perfusion fluid reservoir containing Tyrode solution buffered with 10 % Sorensen phosphate buffer. The tracheal cannula is connected with tubing to a carbogen gas supply delivering a constant amount per time unit. The perfusion pressure is measured in a side arm of the tubing with a "Mercury" transducer connected to an Ultralette UV-recorder. When antigen (egg albumin), 0.1 - 1.0 μg, is injected via the arterial cannula, a broncho-constriction, indicated by an increase in the perfusion pressure, is elicited.

[6] = tested on: gerbil colon (ascending colon) in vivo; assay: Smooth muscle stimulatory effect on the gerbil colon in vivo; parameters: species or system mongolian gerbils
Procedure: The experiments are performed with mongolian gerbils, anesthetized with pentobarbital, 50 mg/kg. The ascending colon is exposed and carefully stretched between silk thread loops and a strain-gauge transducer.
After a stable base-line has been established an eter of this invention, sodium 3,5-dimethylphenyl 4-(3-(2,4,6-trihydroxyphenyl)-3-oxopropyl)phenylphosphate (Leo 1258) is infused i.v.

[7] = tested on: bronchial smooth muscle, isolated perfused guinea-pig lung; assay: Effect on bronchial smooth muscle, isolated perfused guinea-pig lung
Excerpt: The effects of esters of the present invention on bronchial smooth muscle have been investigated using an isolated perfused guinea-pig lung preparation according to Thattacharya & Delaunois (Arch. Int. Pharmacodyn. 101:495, 1955). The lungs from guinea-pigs weighing 300-400 g are removed, and the trachea and A. pulmonalis cannulated. The arterial cannula is connected to a perfusion fluid reservoir containing Tyrode solution buffered with 10 % Sorensen phosphate buffer. The tracheal cannula is connected with tubing to a carbogen gas supply delivering a constant amount per time unit. The perfusion pressure is measured in a side arm of the tubing with a "Mercury" transducer connected to an Ultralette UV-recorder. The compounds are injected via the arterial cannula, close to the entrance of A. pulmonalis in the lung.

[8] = tested on: Slow Reacting Substance (SRS) contractions of isolated guinea-pig ileum; assay: Antagonism to Slow Reacting Substance on the isolated guinea-pig ileum
Procedure: The antagonism to Slow Reacting Substance (SRS) is determined on the isolated guinea-pig ileum as described by Mathe & Standberg (Acta physiol. scand. 82:460, 1971). Purified SRS is obtained from cat paws perfused with compound 48/80 (Strandberg & Uvnas: Acta physiol. scand. 82.358, 1971). Sodium 4-(3-oxo-3-(2,4,6-trihydroxyphenyl)propyl)phenyl phenyl phosphate was tested in this system in several concentrations.

[9] = tested on: contractions produced by histamine and bradykinin, isolated guinea-pig ileum; assay: Selectivity on the isolated guinea-pig ileum: histamine and bradykinin; conditions: concentrations as low as 5 μg/ml

Compound: Cc1cc(C)cc(OP(=O)(O)Oc2ccc(CCC(=O)c3c(O)cc(O)cc3O)cc2)c1 [Leo 1258, sodium 3,5-dimethylphenyl 4-(3-(2,4,6-trihydroxyphenyl)-3-oxopropyl)phenylphosphate]
- concentration for 50 per cent reduction of the PG-induced contraction, as fraction of that of PPP ([1]; relative to PPP): about one tenth
- effect on the PGE2-stimulated corticosterone production ([2]; 0.25 and 1.0 mg added to the incubation bath): dose-related inhibition
- Corticosterone production ([2]; Exp. II group A, Leo 1258 250 μg/ml without PGE2): 3.9±0.5 μg/100 mgx 1 h
- Corticosterone production ([2]; Exp. II group C, PGE2 1 μg/ml + Leo 1258 250 μg/ml): 6.5±0.5 μg/100 mgx 1 h
- Corticosterone production ([2]; Exp. II group D, PGE2 1 μg/ml + Leo 1258 1 mg/ml): 2.9±0.2 μg/100 mgx 1 h
- activity as a prostaglandin inhibitor relative to PPP [3]: 5-10 times
- IC50 ([3]; Rattus norvegicus, 60 min. preincubation, then 2 hours with PG, read-out: concentration in the preincubation medium giving about 50 % reduction of the lactic acid production produced by PGE1): 50 to 100 µg/mL
- ovarian glycolysis (lactic acid) compared with saline-injected animals [4]: significantly reduced
- effect on the anaphylactic bronchoconstriction ([5]; 4-20 μg/ml incorporated in the Tyrode solution): abolished or markedly reduced
- reaction of the gut ([6]; 1 mg/ml in the buffer solution superfusing the gut): increase in tone
- minimal effective dose ([6]; Meriones unguiculatus, iv, infused i.v., anesthetized gerbils, read-out: dose that causes the gut to respond with a series of contractions): ≥ 40 mg/kg
- dose showing a broncho-constricting effect ([7]; injected via the arterial cannula): ≥ 0.5 mg

Compound: CCCCC[C@H](O)/C=C/[C@H]1[C@H](O)CC(=O)[C@@H]1C/C=C\CCCC(=O)O [PGE2, prostaglandin E2, reference compound]
- Corticosterone production ([2]; Exp. I, PGE2 1 μg/ml alone, 4 observ.): 7.6±0.4 μg/100 mgx 1 h
- Corticosterone production ([2]; Exp. II group B, PGE2 1 μg/ml alone): 8.4±0.5 μg/100 mgx 1 h
- effect on the corticosterone concentration ([2]; PGE2 1 μg/ml, Exp. I): highly significant increase

Compound: O=C(CCc1ccc(OP(=O)([O-])Oc2ccccc2)cc1)c1c(O)cc(O)cc1O.[Na+] [sodium 4-(3-oxo-3-(2,4,6-trihydroxyphenyl)propyl)-phenyl phenyl phosphate]
- concentration that inhibits contractions produced by SRS ([8]; concentrations as low as): 5 µg/mL
- manner of the inhibition of SRS contractions ([8]; parallel shift of the dose-response curves, no change in maximum contraction): competitive
- inhibition of contractions produced by histamine and bradykinin [9]: not by histamine and bradykinin

Compound: O=P(O)(Oc1ccccc1)Oc1ccccc1 [sodium salt of diphenyl phosphate, reference compound]
- PG-inhibitory effect on the gerbil colon ([1]; concentrations 10 times as high as that of PPP): without effect
- antagonism to SRS [8]: without effect
- effect on the anaphylactic bronchoconstriction ([5]; concentration 100 μg/ml): completely lacked such an effect
- effect on the gut ([6]; i.v., doses up to 400 mg/kg): no effect at all
- broncho-constricting effect ([7]; dose of 12.8 mg): completely lacked such an effect
